Our source for the TGI and GI50 values is PubChem BioAssay (NCI).

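Briefly, cells in 96-well plates were exposed to five compound concentrations for 48 h, and endpoints were estimated by linear interpolation. GI50: concentration for 50% inhibition of growth. TGI marks complete inhibition of growth.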

Some test systems named below: M14 melanoma; UACC-62 melanoma; CAKI-1 renal; SW-620 colon; TK-10 renal; OVCAR-4 ovarian; COLO 205 colon; CCRF-CEM leukemia; RPMI-8226 leukemia.
What all share (assay): NCI-60 cell line screen, 48 h

Turning to `O=C1NC2(CCCCC2)C2=C1CCCCC2`, the TGI in the assay on M14 melanoma, with UACC-62 melanoma, in the assay on CAKI-1 renal, with SW-620 colon, with TK-10 renal and with OVCAR-4 ovarian was > 100 µM each time. For the same molecule, the TGI with COLO 205 colon and in the assay with CCRF-CEM leukemia was > 100 µM in each case.
As for `CCCCc1c2c(nc3c1CC/C(=C\c1ccccc1)C3=O)CCCC2`, the TGI in the assay with M14 melanoma came to 18.9 µM; in the assay with UACC-62 melanoma, 7.04 µM; with SW-620 colon, 5.32 µM; with TK-10 renal it was 21.1 µM; with COLO 205 colon it was 23.1 µM; in the assay on RPMI-8226 leukemia, 7.04 µM. Besides, in the assay on CCRF-CEM leukemia, the TGI was 29.4 µM.
Regarding `Cn1nc(-c2ccccc2)c(C(=O)/C=C/c2ccccc2)c(N2CCCC2)c1=O`, the TGI stood at 35.3 µM in the assay on M14 melanoma; 41 µM in the assay on UACC-62 melanoma; 53.7 µM in the assay with SW-620 colon; 49.3 µM in the assay on TK-10 renal; 30 µM with COLO 205 colon; 29.3 µM with RPMI-8226 leukemia. Further, the TGI with CCRF-CEM leukemia is 40.6 µM.
Consider `O=[N+]([O-])C1(CO)COC(CCc2ccccc2)OC1` (stereo unspecified), for which the TGI in the assay with M14 melanoma, in the assay with UACC-62 melanoma, in the assay with SW-620 colon, in the assay with TK-10 renal, in the assay on OVCAR-4 ovarian and in the assay with CCRF-CEM leukemia was > 100 µM in each case.
Take `CC1CC2C(=O)N(c3ccccc3)C(=O)C2c2[nH]c3ccccc3c21` (stereo unspecified): the TGI in the assay on M14 melanoma, with UACC-62 melanoma, in the assay on SW-620 colon, with TK-10 renal, in the assay with OVCAR-4 ovarian and in the assay on COLO 205 colon was > 100 µM throughout. In addition, the TGI with RPMI-8226 leukemia and in the assay on CCRF-CEM leukemia was > 100 µM throughout.
On to `Clc1ccc(N=CNc2ccc(-c3nc4ccccc4[nH]3)cc2)cc1`, for which the GI50 in the assay with M14 melanoma is > 100 µM; in the assay on UACC-62 melanoma, 0.386 µM; in the assay with CAKI-1 renal, 0.827 µM; with SW-620 colon, > 100 µM; in the assay with TK-10 renal it was 7.52 µM; in the assay on OVCAR-4 ovarian, 48.4 µM. Also, the values for the GI50 with COLO 205 colon and in the assay on RPMI-8226 leukemia were 3.99 µM and 7.57 µM, respectively. In addition, the TGI in the assay with M14 melanoma is > 100 µM; with UACC-62 melanoma, > 100 µM; in the assay on CAKI-1 renal, 42.5 µM; with SW-620 colon it was > 100 µM; with TK-10 renal, > 100 µM; in the assay on OVCAR-4 ovarian it was > 100 µM. The TGI with COLO 205 colon and in the assay on RPMI-8226 leukemia was > 100 µM each time.
Regarding `NC1CC(n2ccc(=O)[nH]c2=O)OC1C(O)CO` (stereo unspecified), the TGI in the assay with M14 melanoma, in the assay with UACC-62 melanoma, in the assay on SW-620 colon, in the assay with TK-10 renal, in the assay with OVCAR-4 ovarian and with COLO 205 colon was > 100 µM throughout. The TGI in the assay with RPMI-8226 leukemia and with CCRF-CEM leukemia was > 100 µM each time.
For the molecule `CC1=C(C(=O)OC(C)(C)C)C(c2ccc([N+](=O)[O-])cc2)C(C(=O)OC(C)(C)C)=C(C)N1`, the TGI is 47.6 µM with M14 melanoma; 34.8 µM in the assay with UACC-62 melanoma; 56.4 µM in the assay on CAKI-1 renal; 54 µM in the assay on SW-620 colon; 38.1 µM with TK-10 renal; 37.4 µM with OVCAR-4 ovarian. Further, the figures for the TGI with COLO 205 colon and in the assay on RPMI-8226 leukemia were 39.8 µM and 54 µM, respectively.
With `O=C(Nc1ccccc1)Oc1ccccc1C1CCCCC1`, the TGI was 56.7 µM in the assay with M14 melanoma; > 100 µM with UACC-62 melanoma; 72.5 µM with SW-620 colon; > 100 µM in the assay on TK-10 renal; 37.3 µM in the assay on OVCAR-4 ovarian; 30.6 µM in the assay with COLO 205 colon. In addition, the TGI in the assay with RPMI-8226 leukemia was 52 µM; with CCRF-CEM leukemia, 67.3 µM.
With `Cc1nc(-c2cccnc2)sc1C(=O)/C=C/c1ccc(Cl)cc1Cl`, the TGI with UACC-62 melanoma, with CAKI-1 renal, in the assay on SW-620 colon, in the assay on TK-10 renal, in the assay with COLO 205 colon and with RPMI-8226 leukemia was > 100 µM in each case. In addition, the TGI in the assay with CCRF-CEM leukemia was > 100 µM.
Take `CN1C/C(=C\c2ccco2)c2nc(N)nc(-c3ccco3)c2C1`: the TGI in the assay on M14 melanoma, in the assay on UACC-62 melanoma, with CAKI-1 renal, with SW-620 colon, with TK-10 renal and with COLO 205 colon was > 100 µM in each case. Further, the TGI in the assay on RPMI-8226 leukemia and in the assay with CCRF-CEM leukemia was > 100 µM each time.
On to `CCCCCCCCCCCCCCCC(=O)NCC(OCC)OCC`, for which the TGI in the assay on M14 melanoma, in the assay on UACC-62 melanoma, with SW-620 colon, with TK-10 renal, in the assay with OVCAR-4 ovarian and in the assay with COLO 205 colon was > 100 µM each time. In addition, the TGI in the assay with CCRF-CEM leukemia was > 100 µM.
As to `Nc1nc(N)c(-c2ccccc2)c(C(=O)Nc2nccs2)n1`, the TGI in the assay on M14 melanoma, in the assay with UACC-62 melanoma, in the assay with CAKI-1 renal, in the assay on SW-620 colon, in the assay with TK-10 renal and with OVCAR-4 ovarian was > 100 µM throughout. In addition, the TGI in the assay with COLO 205 colon and in the assay with CCRF-CEM leukemia was > 100 µM throughout.
